What was measured:
[1] = HPLC-MASS analysis of CSF after tail vein injection; format: in vivo, rat; settings: 15 mg/kg tail vein
Procedure: HPLC-MASS analysis CSF: 8 W SD rats are bought from Beijing Vital River, housed in individually cage in a temperature- and humidity-controlled SPF facility, with ad libitum access to food and water. The animals were entrained under 12 h light/dark photoperiod for two weeks to synchronize the endogenous circadian clock of the mice to the ambient light-dark cycle, light intensity is about 50˜100 lux. […] Finally, each 450 μl supernatant was collected into a new 1.5 ml tube, dried with SpeedVac and analyzed with HPLC-MASS facility.
To test whether cordycepin function in vivo, we firstly tested luciferase signal level by live imaging of Per2:LUC mice after intraperitoneal injection of 15 mg/kg cordycepin or DMSO. […] Prior evaluation the jet-leg cure ability of cordycepin, we detected whether cordycepin and it's prodrug pro-CA03 can penetrate BBB. We injected cordycepin or pro-CA03 via tail vein and time course sampled CSF and analyzed cordycepin pro-CA03 level with HPLC-MASS method. […] Finally we evaluated the jet-leg cure ability of cordycepin, pro-CA03 and Pro-CA04 with mice behavioral experiment. […]

PER2 locus = assay: ChIP-qPCR analysis for the PER2 locus; format: cell-based
Procedure: Human and mouse circadian oscillators are driven by interlocked transcriptional and translational feedback loop. Bmal1 and Clock are transcriptional factors and function as positive arm to active negative arm genes transcription, including Per and Cry. Per and Cry are transcriptional repressor and feedback repress Bmal1/Clock's transcription activity thereby inhibit its own transcription. […] We also confirmed this by ChIP-qPCR experiments. Cordycepin treatment 30 min immediately release Cry1/2 and Ruvbl2 binding at Per2 gene promoter.

SMILES: Nc1ncnc2c1ncn2[C@@H]1O[C@H](CO)C[C@H]1O [Cordycepin, 3′-deoxy-adenosine]
- time of peak concentration in CSF after injection [1]: 1 min
- binding of BMAL1 at PER2 locus (PER2 locus): remained unchanged
- binding of CRY2/RUVBL2 at PER2 locus (PER2 locus): released

Reference: US12667584B2, “Adenosine analog and its use in regulating the circadian clock” (NATIONAL INSTITUTE OF BIOLOGICAL SCIENCES, BEIJING, priority 2017, dated 2026)
